Here are results for 2 molecules from patent EP4653012A1 (Jiangsu Hengrui Pharmaceuticals Co., Ltd., priority 2023, dated 2024).

Data set [1] relates to A549 (human non-small cell lung cancer cells). In words: In vitro cytotoxic activity screening (CTG assay). The class given is cell-based. On the procedure:
(§1) In this experiment, the ATP content was determined using CTG to reflect the survival condition of the tumor cells. […] The killing effect of the toxin molecule was then assayed according to this condition.
(§2) According to the purpose of the experiment, two disease models of breast cancer and NSCLC were selected, and three cell strains of SKBR3 tumor cells (HER2+, ATCC, Cat# HTB-30), MDA-MB-468 (HER2-, ATCC, Cat# HTB-132) and A549 (human non-small cell lung cancer cells, ATCC, Cat# CCL-185) were selected for screening.
(§3) The cells were counted, and 4.3 × 10^5, 7.2 × 10^5 and 11.5 × 10^5 cells were each added to a culture solution to give a final volume of 26 mL. 180 µL of cell suspension was added to each well in columns 2 to 11 of a 96-well plate (Corning, Cat# 3903) to give cell densities of 3K, 5K, and 8K per well. Wells in column 12 were each filled with 200 µL of culture solution and the remaining wells were each filled with PBS. The SKBR3 and MDA-MB-468 cells were subjected to the same operations described above. […] 2 mM stock solution (stock solution diluted 10-fold in DMSO) was prepared in column 1 of drug preparation plate 1, and then 10-fold gradient dilution in DMSO was performed through column 10, and the wells in column 11 were filled with DMSO. 95 µL of corresponding culture solution was added into each well from column 2 to column 11 of the drug preparation plate 2, and 5 µL of solution was pipetted from column 2 to column 11 of drug preparation plate 1 to drug preparation plate 2. The solution was mixed well, and 20 µL of solution was pipetted and added into the plated cells. The cells were then cultured for 3 days and 5 days. • 4) CTG assay (Cell Titer-GloTM, luminescent cell viability assay, Promega): the cell plates were taken out on day 3 and day 5 and equilibrated to room temperature. 90 µL of CTG was added into each well, and the mixture was reacted at room temperature for 10 min in the dark. The luminescence value was read using a microplate reader and IC50 was calculated.

The test system of data set [2] is MDA-MB-468 (HER2-). The data set is described as follows: In vitro cytotoxic activity screening (CTG assay). The class given is cell-based. The method, then:
as §1, §2, §3

The test system of data set [3] is SKBR3 tumor cells (HER2+). The data set is described as follows: In vitro cytotoxic activity screening (CTG assay). The class given is cell-based. On the procedure:
as §1, §2, §3

Data set [4] can be described thus: Pharmacokinetic study in beagles, intravenous administration, plasma by LC/MS/MS. Conditions: 0.5 mg/kg.
Procedure: The pharmacokinetic behavior of the compound of the present disclosure in dogs was studied, and its pharmacokinetic profile was evaluated.
Six male beagles were divided into 2 groups of 3, purchased from Shanghai Medicilon Inc., and subjected to an administration test.
The collected blood samples were each placed in EDTA-K2 anticoagulant blood collection tubes, and the collected whole blood was placed on ice and centrifuged within 1 h to isolate the plasma (centrifugal force: 2200 g, centrifugal time: 10 min, 2-8 °C). Plasma samples were stored in a refrigerator at -80 °C prior to testing.
The content of the test compounds in beagle plasma after the injection was determined: 25 µL of beagle plasma at each time point after the administration was mixed with 50 µL (100 ng/mL) of internal standard solution camptothecin (China National Institutes for Food and Drug Control) and 200 µL of acetonitrile. The mixture was vortexed for 5 min and centrifuged for 10 min (3700 rpm), and 3-4 µL of the supernatant of the plasma sample was taken for LC/MS/MS assay (API4000 triple quadrupole tandem mass spectrometer (No. 2), Applied Biosystems, USA; Shimadzu, LC-30AD ultra high performance liquid chromatography system, Shimadzu, Japan).

One may read the IC50 as the midpoint of a concentration-inhibition curve. For the molecule `C=C1C[C@@H]2CC[C@@]34C[C@H]5O[C@H]6[C@@H](O3)[C@H]3O[C@H](CC[C@@H]3O[C@H]6[C@H]5O4)CC(=O)C[C@@H]3[C@@H](OC)[C@@H](C[C@@H](CN)OC)O[C@H]3C[C@H]3O[C@@H](CC[C@@H]1O2)C[C@@H](C)C3=C` [Compound 1], the Maximum inhibition rate turned out to be 81.34% in data set [1] (A549, CTG); 88.01% in data set [2] (MDA-MB-468, CTG); 96.87% in data set [3] (SKBR3, CTG). The IC50 in data set [1] (Homo sapiens, A549) was 0.515 nM; in data set [2] (Homo sapiens, MDA-MB-468) it was 0.183 nM; in data set [3] (Homo sapiens, SK-BR-3) it was 0.205 nM. Besides, in data set [4] (beagles, intravenous), the “Plasma concentration C5min” value was 82.1 ng/mL.
`C=C1C[C@@H]2CC[C@@]34C[C@H]5O[C@H]6[C@@H](O3)[C@H]3O[C@H](CC[C@@H]3O[C@H]6[C@H]5O4)CC(=O)C[C@@H]3[C@@H](OC)[C@@H](C[C@H](O)CN)O[C@H]3C[C@H]3O[C@@H](CC[C@@H]1O2)C[C@@H](C)C3=C` [Eribulin, eribulin, reference compound] came in with a concentration at 5 min in data set [4] (male, beagle, dog, in vivo, iv) of 217 ng/mL.
